Results as given in PMC8767159, “Multiparameter Optimization of Trypanocidal Cruzain Inhibitors With In Vivo Activity and Favorable Pharmacokinetics” (Frontiers in Pharmacology, 2022).
Where two headings read alike, the source gives them in different places.

Legend:
[1] = tested on: T. cruzi intracellular amastigotes; test: Assay against T. cruzi intracellular amastigotes (Tulahuen lacZ strain in HFF-1 fibroblasts); type: cell-based, Trypanosoma cruzi
Method: Biological assays against T. cruzi intracellular amastigotes were performed as reported previously using the T. cruzi Tulahuen strain, which is genetically engineered to express the E. coli β-galactosidase gene lacZ ([Buckner et al., 1996]). β-Galactosidase catalyzes a colorimetric reaction with chlorophenol red β-D-galactopyranoside (CPRG, Sigma Chemical Co., St. Louis, MO) as the substrate. The assays were conducted in 96-well tissue culture plates, and the compounds to be tested were prepared in 100% DMSO. Epimastigotes were maintained in liver infusion tryptone (LIT) enriched with 10% fetal calf serum (FCS), streptomycin, and penicillin at 28°C. Epimastigotes were converted to trypomastigotes by incubation in Grace’s insect medium (Sigma–Aldrich, St. Louis, MO) enriched with 10% FCS at 28°C. Human HFF-1 fibroblasts were seeded at 2 × 10^3/well in 80 μl of RPMI 1640 without phenol red and incubated overnight at 37°C and 5% CO2. Trypomastigotes were seeded at 1.0 × 10^4/well in 20 μl of RPMI 1640, and the plates were incubated at 37°C and 5% CO2. The next day, the synthesized compounds were added (50 μl) in 3-fold serial dilutions at concentrations ranging from 0.4 to 300 μM, and the plates were incubated at 37°C and 5% CO2. Each compound concentration was assayed in triplicate. After 120 h, 50 μl of chlorophenol red β-D-galactopyranoside (CPRG, Sigma–Aldrich) and IGEPAL CA-630 (Sigma–Aldrich) at a final concentration of 0.1% were added. The absorbance was measured at a wavelength of 570 nm in an automated microplate reader. The data were transferred to SigmaPlot 10.0 (Systat Software Inc., Erkrath, Germany) to determine the IC50 values. Benznidazole (BZ, Sigma–Aldrich) was used as a positive control, and untreated wells (100% parasite growth) were used as negative controls in all plates. All compounds were tested in three independent assays.

[2] = molecular target: T1, cruzain (Trypanosoma cruzi, UniProt P25779); test: Cruzain enzyme inhibition assay (cleavage of fluorogenic substrate Z-FR-AMC); type: biochemical; settings: for inhibition at 100 µM: compound 100 µM, mean of three measures; for % cruzain inhibition, 0% Triton / % cruzain inhibition, 0.01% Triton / % cruzain inhibition, 0.1% Triton: Table S1; for % cruzain inhibition, 0% Triton: 0% Triton X-100; for % cruzain inhibition, 0.01% Triton: 0.01% Triton X-100; for % cruzain inhibition, 0.1% Triton: 0.1% Triton X-100; for Mechanism of cruzain inhibition (Lineweaver-Burk plots): eight substrate and four inhibitor concentrations
T1 construct: made in house; host or cells: Escherichia coli (strain M15)
Method: Pro-cruzain truncated at the C-terminus was expressed and purified using a previously described protocol ([Ferreira et al., 2019]). Escherichia coli (strain M15) cultures were grown overnight at 37°C and 200 rpm in Luria Bertani (LB) medium supplemented with ampicillin (100 μg/ml) and kanamycin (50 μg/ml). Next, the cultures were diluted 10-fold in fresh LB medium supplemented with 0.5 M NaCl, 0.2% glucose, 1 mM betaine, 0.5 M sorbitol, 100 μg/ml ampicillin, and 50 μg/ml kanamycin and incubated at 37°C and 200 rpm. At an optical density (OD600) of 0.9, the cultures were incubated at 47°C for 20 min to promote the expression of chaperones. Then, the expression of cruzain was induced by adding isopropyl β-D-thiogalactopyranoside (IPTG) to a final concentration of 0.2 mM, which was followed by overnight incubation of the cultures at 20°C and 200 rpm. Next, the cultures were centrifuged (5,000 rpm, 30 min, 4°C), and the cells were suspended in 50 ml of lysis buffer (300 mM NaCl, 50 mM Tris-HCl, and 1.6 mg/ml lysozyme, pH 8.0) per liter of culture and lysed by sonication (12 cycles of 30 s). This cell lysate was centrifuged (9,000 rpm, 30 min, 4°C), and the supernatant was collected. Cruzain was precipitated by incubation with 35% ammonium sulfate (2 h), and this suspension was centrifuged at 9,000 rpm for 30 min at 4°C. The precipitated cruzain was resuspended in lysis buffer, and the sample was dialyzed to eliminate ammonium sulfate. The soluble fraction of the dialysate was loaded on a Ni−NTA column (Qiagen, Hilden, Germany), and the contaminants were washed using washing buffer (300 mM NaCl, 50 mM Tris-HCl, and 10 mM imidazole, pH 8.0). Cruzain was eluted by applying an increasing imidazole gradient: 25, 50, 75, 100, and 250 mM. The fractions containing cruzain were pooled together and dialyzed against 1.5 L of 0.1 M acetate buffer, pH 5.5, and then concentrated to 0.5 mg/ml. Pro-cruzain was activated by incubation with activation buffer (100 mM sodium acetate, pH 5.5, 10 mM EDTA, 5 mM DTT, and 1 M NaCl) at 37°C. […] After activation, the enzyme was diluted 20-fold in binding buffer (20 mM sodium phosphate and 150 mM NaCl, pH 7.2) and added to thiopropyl Sepharose 6B resin (GE Healthcare Life Sciences, Pittsburgh, PA). After overnight incubation at 4°C, the resin was loaded on a column, and cruzain was eluted with binding buffer supplemented with 20 mM DTT. Fractions containing cruzain were pooled together and stored in 0.1 M sodium acetate, pH 5.5, at −80°C.
Cruzain activity was followed by monitoring the cleavage of the fluorogenic substrate Z-Phe-Arg-aminomethyl coumarin (Z-FR-AMC), as previously described ([Ferreira et al., 2019]), using 96-well flat-bottom black plates and wavelengths of 355 nm for excitation and 460 nm for emission. All cruzain assays were performed in 0.1 M sodium acetate buffer with 5 mM dithiothreitol (DTT) and 0.01% Triton X-100, pH 5.5. […] The cleavage of the substrate was monitored for 5 min, and the activity was calculated based on the initial reaction rates compared with the rate of a DMSO control at 30°C. The IC50 values were independently calculated by considering the rate measurements for at least six inhibitor concentrations, each evaluated in triplicate. To determine the mechanism of cruzain inhibition, eight concentrations of the substrate Z-FR-AMC and four concentrations of the inhibitor were employed, each in triplicate. Kinetic parameters were determined using the SigmaPlot (Systat Software Inc., Erkrath, Germany) enzyme kinetics module. Compounds were tested in two or three independent experiments. All enzyme assays were performed using varying Triton X-100 concentrations (0, 0.01, and 0.1%) ([Ferreira et al., 2009]). Compound concentrations were 100 μM in the single-dose percentage inhibition assays.

[3] = Trypanosoma cruzi, HFF-1, 120 h, Table 3, 120 h, mean ± SD of three assays
[4] = Trypanosoma cruzi, HFF-1, Table 4, mean ± SD of three assays
[5] = 1.5 nM cruzain, 5.0 µM Z-FR-AMC, mean ± SD of 2–3 assays, read-out: IC50 (µM) against cruzain
[6] = Table S2, substrate 2.5 µM, read-out: IC50 (µM) cruzain at [S] 2.5 µM
[7] = Table S2, substrate 5 µM, read-out: IC50 (µM) cruzain at [S] 5 µM
[8] = Table S2, substrate 10 µM, read-out: IC50 (µM) cruzain at [S] 10 µM
[9] = Table S2, substrate 15 µM, read-out: IC50 (µM) cruzain at [S] 15 µM
[10] = Table S2, substrate 20 µM, read-out: IC50 (µM) cruzain at [S] 20 µM
[11] = Table S2, substrate 40 µM, read-out: IC50 (µM) cruzain at [S] 40 µM

T1 sequence (P25779 123-337 limits assumed): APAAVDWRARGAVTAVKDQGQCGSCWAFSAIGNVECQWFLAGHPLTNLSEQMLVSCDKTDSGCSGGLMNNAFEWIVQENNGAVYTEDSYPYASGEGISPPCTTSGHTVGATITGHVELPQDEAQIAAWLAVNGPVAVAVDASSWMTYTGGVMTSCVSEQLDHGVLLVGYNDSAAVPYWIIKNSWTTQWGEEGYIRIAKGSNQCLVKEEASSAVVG

Row | SMILES | IC50 [1, 3] [µM] | IC50 [1, 4] [µM] | IC50 [2, 5] [µM] | inhibition at 100 µM [2] [%] | other results
1 | NC(=O)Cn1c(CCNC(=O)COc2ccccc2)nc2ccccc21 [Compound 28] | 6.8 ± 0.9 | 6.8 ± 0.9 | 12.1 ± 2.4 | 81 | –
2 | CC(=O)Nc1ccc(OCC(=O)NCCc2nc3ccccc3[nH]2)cc1 [Compound 2] | 4.5 ± 0.6 | 12.1 ± 1.3 | 4.5 ± 0.5 | 79 | –
3 | O=C(COc1ccccc1)NCCc1nc2ccccc2n1CCOCc1ccccc1 [Compound 21] | – | – | 1.69 ± 0.4 | 76 | % cruzain inhibition, 0% Triton [2]: 80.3 ± 1.4%; % cruzain inhibition, 0.01% Triton [2]: 85.5 ± 2.3%; % cruzain inhibition, 0.1% Triton [2]: 84.6 ± 1.3%
4 | O=C(COc1cccc(NC(=O)CCCO)c1)NCCc1nc2ccccc2[nH]1 [Compound 7] | – | – | – | 75 | –
5 | O=C(COc1ccc2c(C(=O)O)cccc2c1)NCCc1nc2ccccc2[nH]1 [Compound 15] | – | – | > 100 | 58 | –
6 | O=C(COc1ccccc1)NCCc1nc2ccccc2n1-c1ccccc1 [Compound 30] | – | – | 8.6 ± 2.6 | 79 | –
7 | O=C(COc1ccccc1[N+](=O)[O-])NCCc1nc2ccccc2[nH]1 [Compound 32] | – | 7.9 ± 2.13 | – | – | –
8 | Cc1ccccc1OCC(=O)NCCc1nc2ccccc2n1CCOc1ccccc1Br [Compound 22] | – | – | – | 36 | –
9 | C=CCCn1c(CCNC(=O)COc2ccccc2)nc2ccccc21 [Compound 27] | 6.9 ± 2.2 | 6.9 ± 2.2 | 13.7 ± 1.4 | 79 | IC50 [2, 6]: 12.4 ± 2.2 µM; IC50 [2, 7]: 7.5 ± 1.2 µM; IC50 [2, 8]: 14.7 ± 1.8 µM; IC50 [2, 9]: 11.2 ± 1.5 µM; IC50 [2, 10]: 10.2 ± 1.5 µM; IC50 [2, 11]: 8.9 ± 3.1 µM; Mechanism of cruzain inhibition (Lineweaver-Burk plots) [2]: noncompetitive
10 | COCCn1c(CCNC(=O)COc2ccccc2)nc2ccccc21 [Compound 29] | – | – | 8.8 ± 1.8 | 79 | –
11 | O=C(COc1ccc(N2C(=O)CCC2=O)cc1)NCCc1nc2ccccc2[nH]1 [Compound 4] | – | – | – | 20 | –
12 | O=C(COc1ccc(NC(=O)CCCO)cc1)NCCc1nc2ccccc2[nH]1 [Compound 5] | – | ~50 | – | 87 | –
13 | O=C(COc1ccc2ccccc2c1Br)NCCc1nc2ccccc2[nH]1 [Compound 34] | – | 16.2 ± 3.51 | – | – | –
14 | Cc1ccccc1OCC(=O)NCCc1nc2ccccc2o1 [Compound 37] | – | 2.9 ± 0.66 | – | – | –
15 | O=C(COc1ccccc1Br)NCCc1nc2ccccc2[nH]1 [Compound 18] | – | 1.6 | – | – | IC50 ([1]; Table 4, mean ± SD of three assays): 1.63 ± 0.57 µM
16 | O=C(COc1cccc([N+](=O)[O-])c1)NCCc1nc2ccccc2[nH]1 [Compound 8] | 3.5 ± 0.7 | 3.5 ± 0.7 | 13.5 ± 2.6 | 83 | –
17 | O=C(COc1ccccc1)NCCc1nc2ccccc2n1CCOc1ccccc1Br [Compound 19] | – | – | – | 72 | % cruzain inhibition, 0% Triton [2]: 73.4 ± 2.5%; % cruzain inhibition, 0.01% Triton [2]: 72.1 ± 1.7%; % cruzain inhibition, 0.1% Triton [2]: 77.5 ± 2.2%
18 | O=C(COc1ccccc1)NCCc1nc2ccccc2[nH]1 [Compound 1] | 3.9 ± 0.3 | 3.9 ± 0.3 | 10.9 ± 1 | 90 | Mechanism of cruzain inhibition (Lineweaver-Burk plots) [2]: competitive
19 | Cc1ccccc1OCC(=O)NCCc1nc2ccccc2[nH]1 [Compound 17] | – | 2.81 ± 0.75 | – | – | –
20 | O=C(COc1ccccc1Br)NCCc1nc2ccccc2n1CCOc1ccccc1Br [Compound 23] | – | – | – | 49 | % cruzain inhibition, 0% Triton [2]: 52.1 ± 1.3%; % cruzain inhibition, 0.01% Triton [2]: 53.2 ± 1.9%; % cruzain inhibition, 0.1% Triton [2]: 55.5 ± 5.2%
21 | O=C(COc1ccc2cc(O)ccc2c1)NCCc1nc2ccccc2[nH]1 [Compound 10] | 14.6 ± 0.7 | 14.6 ± 0.7 | 3.4 ± 0.9 | 90 | –
22 | CC(=O)Nc1cccc(OCC(=O)NCCc2nc3ccccc3[nH]2)c1 [Compound 3] | 5 ± 1 | 5 ± 1 | 28.1 ± 3.1 | 70 | –
23 | O=C(COc1ccccc1)NCCc1nc2ccccc2n1Cc1ccccc1 [Compound 26] | 7.4 ± 2 | 7.4 ± 2 | 1.1 ± 0.2 | 77 | IC50 [2, 6]: 1.6 ± 0.1 µM; IC50 [2, 7]: 1.8 ± 0.1 µM; IC50 [2, 8]: 1.9 ± 0.2 µM; IC50 [2, 9]: 1.4 ± 0.5 µM; IC50 [2, 10]: 2.4 ± 0.9 µM; IC50 [2, 11]: 1.2 ± 0.5 µM; Mechanism of cruzain inhibition (Lineweaver-Burk plots) [2]: noncompetitive
24 | O=C(COc1ccccc1)NCCc1nc2ccccc2n1CCCOc1ccccc1 [Compound 24] | 1.43 ± 0.4 | 1.43 ± 0.4 | 2.2 ± 1.2 | 81 | % cruzain inhibition, 0% Triton [2]: 87.9 ± 0.7%; % cruzain inhibition, 0.01% Triton [2]: 82.6 ± 0.3%; % cruzain inhibition, 0.1% Triton [2]: 82.9 ± 3.5%; IC50 [2, 6]: 1.7 ± 1.3 µM; IC50 [2, 7]: 2.2 ± 1.3 µM; IC50 [2, 8]: 2.2 ± 1.1 µM; IC50 [2, 9]: 1.9 ± 1.8 µM; IC50 [2, 10]: 2.5 ± 1.2 µM; IC50 [2, 11]: 2.1 ± 0.9 µM; Mechanism of cruzain inhibition (Lineweaver-Burk plots) [2]: noncompetitive
25 | O=C(COc1ccc(Br)cc1)NCCc1nc2ccccc2[nH]1 [Compound 33] | – | 6.68 ± 2.35 | – | – | –
26 | O=C(COc1cccc(N2C(=O)CCC2=O)c1)NCCc1nc2ccccc2[nH]1 [Compound 6] | – | – | – | 38 | –
27 | O=C(COc1ccc2ccccc2c1)NCCc1nc2ccccc2[nH]1 [Compound 35] | – | 46.1 ± 6.21 | – | – | –
28 | O=C(Cn1ccnc1[N+](=O)[O-])NCc1ccccc1 [BZ, benznidazole, reference compound] | – | 3 ± 0.6 | – | – | IC50 ([1]; Trypanosoma cruzi, HFF-1, Table 3, 120 h, mean ± SD of three assays): 1.45 ± 0.4 µM
29 | C=CCCn1c(CCNC(=O)COc2ccccc2Cl)nc2ccccc21 [Compound 38] | – | 11.1 ± 3.19 | – | – | –
